The first experiment concerns MLKL phosphorylation in HT29-L23 human colorectal adenocarcinoma cells. Description: MLKL Phosphorylation High-Content Assay. It counts as cell-based. Conditions: Homo sapiens, 6 h, necroptosis induced with TNFα, SMAC mimetic and Z-VAD, read-out: pMLKL (IC50). As for the experimental part: MLKL Phosphorylation High-Content Assay
HT29-L23 human colorectal adenocarcinoma cells were maintained in RPMI 1640 medium containing 10% heat-inactivated FBS, 1% Penicillin-Streptomycin and 10 mM HEPES. Cells were seeded at 2,000 cells/well in 384 well tissue culture-treated microplates (Greiner #781090-3B) and incubated at 37° C. (5% CO2/95% O2) for 2 d. On the day of the assay, the cells were treated with test compounds at final concentrations of 6.25 to 0.106 μM for 30 min at 37° C. (5% CO2/95% O2). Necroptosis was induced using a mixture of human TNFα (35 ng/mL) (Peprotech #300-01A), SMAC mimetic (from US 2015/0322111 A1) (700 nM) and Z-VAD (140 nM) (BD pharmingen #51-6936). Following 6 h incubation at 37° C. (5% CO2/95% O2), the cells were fixed with 4% formaldehyde (ACROS 11969-0010) for 15 min at rt, then permeabilized with phosphate buffered saline (PBS) containing 0.2% Triton-X-100 for 10 min. MLKL phosphorylation was detected using anti-MLKL (phospho S358) antibody (Abcam #ab187091) (1:1000 dilution in Blocking Buffer [PBS supplemented with 0.1% BSA]) with ON incubation at 4° C. After washing three times in PBS, goat anti-rabbit Alexa-488 (1:1000 dilution) (Life Technologies, A11008) and Hoechst 33342 (Life Technologies, H3570) (1:2000 dilution) in Blocking Buffer were added for 1 h at rt. Following another three cycles of washes in PBS, the microplates were sealed, and cellular images were acquired in the Cellomics ArrayScan VTI high-content imager equipped with an X1 camera. Fluorescent images were taken using a 10× objective and the 386-23 BGRFRN_BGRFRN and 485-20 BGRFRN_BGRFRN filter sets, for nuclei and MLKL phosphorylation, respectively. The image sets were analyzed using the Compartmental Analysis Bioapplication software (Cellomics). The level of MLKL phosphorylation was quantified as MEAN_CircRingAvgIntenRatio. The maximal inhibitory response was defined by the activity induced by Necls (CAS #: 852391-15-2, 6.25 μM). The IC50 value was defined as the concentration of compound that produces 50% of the maximal inhibition. The data were fitted using the 4-parameter logistic equation to calculate the IC50 and Ymax values.
Consider `CNC(=O)c1n[nH]c2cc(N3CCCC(C(=O)NCc4ccccc4Oc4ccccc4)C3)ccc12` (racemic) [Example 8, N-methyl-6-(3-{ [(2-phenoxyphenyl)methyl]carbamoyl}piperidin-1-yl)-1H-indazole-3-carboxamide], for which the 50% inhibitory concentration (IC50) – broadly, the concentration that inhibits the measured activity by half – was 110 nM.

In the case of `CNC(=O)c1n[nH]c2cc(N3CCCC(C(=O)NCCCOC4CCCCC4)C3)ccc12` (racemic) [Example 9, 6-(3-{[3-(cyclohexyloxy)propyl]carbamoyl}piperidin-1-yl)-N-methyl-1H-indazole-3-carboxamide], the IC50 turned out to be 3500 nM.

For `CNC(=O)c1n[nH]c2cc(N3CCCC(C(=O)NCc4ccccc4OCC4CC4)C3)ccc12` (racemic) [Example 12, 6-[3-({[2-(cyclopropylmethoxy)phenyl]methyl}carbamoyl)piperidin-1-yl]-N-methyl-1H-indazole-3-carboxamide], the IC50 stood at 290 nM.

`CNC(=O)c1n[nH]c2cc(N3CCOC(C(=O)Nc4cnn(Cc5ccccc5)c4)C3)ccc12` (racemic) [Example 21, 6-{2-[(1-benzyl-1H-pyrazol-4-yl)carbamoyl]morpholin-4-yl}-N-methyl-1H-indazole-3-carboxamide]: the IC50 was found to be 1200 nM.

On to `CNC(=O)c1n[nH]c2cc(N3CCCC(C(=O)NCC(O)COc4ccccc4)C3)ccc12` (single isomer, unassigned) [Example 6, 6-{3-[(2-hydroxy-3-phenoxypropyl)carbamoyl]piperidin-1-yl}-N-methyl-1H-indazole-3-carboxamide], for which the IC50 turned out to be 4300 nM.

Take `CNC(=O)c1n[nH]c2cc(N3CCCC(C(=O)NC4CCCC(c5ccccc5)C4)C3)ccc12` (single isomer, unassigned) [Example 15, N-methyl-6-{3-[(3-phenylcyclohexyl)carbamoyl]piperidin-1-yl}-1H-indazole-3-carboxamide]: the IC50 was found to be 1900 nM.

On to `CNC(=O)c1n[nH]c2cc(N3CCCC(C(=O)NCc4ccccc4OC(F)(F)F)C3)ccc12` (centres unmarked) [Example 1, N-methyl-6-[3-({[2-(trifluoromethoxy)phenyl]methyl}carbamoyl)piperidin-1-yl]-1H-indazole-3-carboxamide], for which the IC50 stood at 660 nM.

Take `CNC(=O)c1n[nH]c2cc(N3CCN(C)C(C(=O)NCc4ccccc4OC)C3)ccc12` (centres unmarked) [Example 2, 6-(3-{[(2-methoxyphenyl)methyl]carbamoyl}-4-methylpiperazin-1-yl)-N-methyl-1H-indazole-3-carboxamide]: the IC50 is > 6200 nM.

With `CNC(=O)c1n[nH]c2cc(N3CCOC(C(=O)NCCC(O)c4ccc(F)c(F)c4)C3)ccc12` (centres unmarked) [Example 3, 6-(2-{[3-(3,4-difluorophenyl)-3-hydroxypropyl]carbamoyl}morpholin-4-yl)-N-methyl-1H-indazole-3-carboxamide], the half-inhibitory concentration (IC50) was found to be 4300 nM.

As to `CNC(=O)c1n[nH]c2cc(N3CCNC(C(=O)NCCC(C)c4ccccc4)C3)ccc12` (centres unmarked) [Example 4, N-methyl-6-{3-[(3-phenylbutyl)carbamoyl]piperazin-1-yl}-1H-indazole-3-carboxamide], the half-inhibitory concentration (IC50) was 3200 nM.

Take `CNC(=O)c1n[nH]c2cc(C3CCCN(C(=O)NCCC(C)c4ccccc4)C3)ccc12` (centres unmarked) [Example 5, N-methyl-6-{1-[(3-phenylbutyl)carbamoyl]piperidin-3-yl}-1H-indazole-3-carboxamide]: the IC50 stood at 190 nM.

As to `CNC(=O)c1n[nH]c2cc(N3CCCC(C(=O)NCCC(O)c4ccccc4)C3)ccc12` (centres unmarked) [Example 10, 6-{3-[(3-hydroxy-3-phenylpropyl)carbamoyl]piperidin-1-yl}-N-methyl-1H-indazole-3-carboxamide], the IC50 was 3600 nM.

Take `CNC(=O)c1n[nH]c2cc(N3CCCC(C(=O)NCCC(O)c4ccc(F)c(F)c4)C3)ccc12` (centres unmarked) [Example 14, 6-(3-{[3-(3,4-difluorophenyl)-3-hydroxypropyl]carbamoyl}piperidin-1-yl)-N-methyl-1H-indazole-3-carboxamide]: the IC50 is 2400 nM.

Consider `CNC(=O)c1n[nH]c2cc(N3CCCC(C(=O)NCCC(C)c4ccccc4)C3)ccc12` (centres unmarked) [Example 17, N-methyl-6-{3-[(3-phenylbutyl)carbamoyl]piperidin-1-yl}-1H-indazole-3-carboxamide], for which the IC50 stood at 200 nM.

With `CNC(=O)c1n[nH]c2cc(N3CCN(C)C(C(=O)NCCC(O)c4ccccc4)C3)ccc12` (centres unmarked) [Example 18, 6 6-{3-[(3-hydroxy-3-phenylpropyl)carbamoyl]-4-methylpiperazin-1-yl}-N-methyl-1H-indazole-3-carboxamide], the IC50 was 2400 nM.

Take `CNC(=O)c1n[nH]c2cc(N3CCN(C)C(C(=O)NCCC(C)c4ccc(F)cc4)C3)ccc12` (centres unmarked) [Example 19, 6-(3-{[3-(4-fluorophenyl)butyl]carbamoyl}-4-methylpiperazin-1-yl)-N-methyl-1H-indazole-3-carboxamide]: the IC50 is 690 nM.

Turning to `CNC(=O)c1n[nH]c2cc(N3CCN(C)C(C(=O)NCCC(C)c4ccccc4)C3)ccc12` (centres unmarked) [Example 20, N-methyl-6-{4-methyl-3-[(3-phenylbutyl)carbamoyl]piperazin-1-yl}-1H-indazole-3-carboxamide], the IC50 amounted to 2300 nM.

On to `CNC(=O)c1n[nH]c2cc(N3CCOC(C(=O)NCCC(C)c4ccccc4)C3)ccc12` (centres unmarked) [Example 22, N-methyl-6-{2-[(3-phenylbutyl)carbamoyl]morpholin-4-yl}-1H-indazole-3-carboxamide], for which the IC50 turned out to be 440 nM.

As for `CNC(=O)c1n[nH]c2cc(N3CCOC(C(=O)NCC4CC4c4cccc(F)c4)C3)ccc12` (centres unmarked) [Example 23], the half-maximal inhibitory concentration (IC50) was 1600 nM.

Take `CNC(=O)c1n[nH]c2cc(N3CCOC(C(=O)NCCC(C)c4ccc(F)cc4)C3)ccc12` (centres unmarked) [Example 24, 6-(2-{[3-(4-fluorophenyl)butyl]carbamoyl}morpholin-4-yl)-N-methyl-1H-indazole-3-carboxamide]: the IC50 was 110 nM.

Turning to `CNC(=O)c1n[nH]c2cc(N3CCOC(C(=O)NCCC(O)c4ccc(Cl)cc4)C3)ccc12` (centres unmarked) [Example 25, 6-(2-{[3-(4-chlorophenyl)-3-hydroxypropyl]carbamoyl}morpholin-4-yl)-N-methyl-1H-indazole-3-carboxamide], the IC50 worked out at 4500 nM.

On to `CNC(=O)c1n[nH]c2cc(N3CCOC(C(=O)NC4CCCC(c5ccccc5)C4)C3)ccc12` (centres unmarked) [Example 26, N-methyl-6-{2-[(3-phenylcyclohexyl)carbamoyl]morpholin-4-yl}-1H-indazole-3-carboxamide], for which the half-maximal inhibitory concentration (IC50) came out at 2500 nM.

Still in this experiment, the particulars now being: necroptosis induced with TNFα, SMAC mimetic and Z-VAD, 6 h, read-out: pMLKL (IC50).
As for `CNC(=O)c1n[nH]c2cc(N3CCCC(C(=O)NC4CCCC(c5ccccc5)C4)C3)ccc12` (racemic) [Example 16, N-methyl-6-{3-[(3-phenylcyclohexyl)carbamoyl]piperidin-1-yl}-1H-indazole-3-carboxamide], the IC50 came out at 3100 nM.

Take `CNC(=O)c1n[nH]c2cc(N3CCCC(C(=O)NCC(O)COc4ccccc4)C3)ccc12` (single isomer, unassigned) [Example 7, 6-{3-[(2-hydroxy-3-phenoxypropyl)carbamoyl]piperidin-1-yl}-N-methyl-1H-indazole-3-carboxamide]: the IC50 stood at 2200 nM.

Take `CNC(=O)c1n[nH]c2cc(N3CCCC(C(=O)Nc4cnn(Cc5ccccc5)c4)C3)ccc12` (centres unmarked) [Example 11, 6-{3-[(1-benzyl-1H-pyrazol-4-yl)carbamoyl]piperidin-1-yl}-N-methyl-1H-indazole-3-carboxamide]: the IC50 came to 2500 nM.

`CNC(=O)c1n[nH]c2cc(N3CCCC(C(=O)NCCCOc4ccc(F)cc4)C3)ccc12` (centres unmarked) [Example 13, 6-(3-{[3-(4-fluorophenoxy)propyl]carbamoyl}piperidin-1-yl)-N-methyl-1H-indazole-3-carboxamide]: the 50% inhibitory concentration (IC50) amounted to 3200 nM.

The values above are taken from patent US12084426B2, “Indazole carboxamides as kinase inhibitors” (BRISTOL-MYERS SQUIBB COMPANY, priority 2018, dated 2024).
